Test [1] concerns the target T1, LK35.2-hPD-L1 cells / PE-labeled PD-1-Ig (Homo sapiens, UniProt Q9NZQ7).
T1 construct: expressed in transfected cells; host or cells: LK35.2 mouse B cell line
The test is described as follows: LK35.2-hPD-L1 cell binding high-content screening assay. It counts as cell-based. The following applies: cell binding assay, cell line not given; cluster symbol; read-out: CBA IC50 cluster. In a few lines: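 Binding of PE-conjugated human PD-1-Ig (1 nM final) to human PD-L1 stably expressed on a mouse B-cell line (LK35.2) was measured by high-content imaging after washes. Compound and labeled PD-1-Ig were co-incubated 1 h at 37 °C with cells in RPMI/10% FCS.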

The target of test [2] is T2, Human PD-L1/PD-1 (Homo sapiens, UniProt Q9NZQ7).
T2 construct: made in house; host or cells: HEK293T
The test is described as follows: HTRF PD-1-Ig/PD-L1-His binding assay (human PD-L1). The following applies: cluster symbol; read-out: HTRF IC50 cluster. The method in brief:
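Readout: time-resolved FRET between Eu cryptate-labeled anti-Ig (1 nM final) and APC-labeled anti-His (20 nM final) antibodies. These detect interaction of Fc-fused PD-1 with His-tagged human PD-L1 in dPBS containing 0.1% BSA and 0.05% Tween-20.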
(TR-FRET usually uses a lanthanide donor and a delayed reading to cut background.)

SMILES strings stand for the structures. Positions of bridges follow the written chain, without caps; N, C: chain ends. Non-standard residues stand in square brackets, D forms with d. Residues, ends and D or L forms follow the SMILES beside them. ξ: configuration not given here. Bta = N[C@@H](Cc1csc2ccccc12)C(=O)O; Hyp = O=C(O)[C@@H]1C[C@@H](O)CN1; NMeNle = CCCC[C@H](NC)C(=O)O; NMeM = CN[C@@H](CCSC)C(=O)O; NMeA = CN[C@@H](C)C(=O)O; Dap = NC[C@H](N)C(=O)O; ξC = NC(CS)C(=O)O

For orientation: IC50 means the concentration that inhibits the measured activity by half.

T1 sequence (Q9NZQ7 19-290): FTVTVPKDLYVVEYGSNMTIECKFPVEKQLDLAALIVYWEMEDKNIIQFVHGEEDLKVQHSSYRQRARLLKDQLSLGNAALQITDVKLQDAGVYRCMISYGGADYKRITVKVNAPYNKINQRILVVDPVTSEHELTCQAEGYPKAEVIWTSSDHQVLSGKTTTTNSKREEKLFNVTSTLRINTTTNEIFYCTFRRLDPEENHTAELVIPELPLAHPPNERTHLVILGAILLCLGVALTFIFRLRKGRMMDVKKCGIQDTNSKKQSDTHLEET
T2 sequence (Q9NZQ7 with tags, fused parts or gaps): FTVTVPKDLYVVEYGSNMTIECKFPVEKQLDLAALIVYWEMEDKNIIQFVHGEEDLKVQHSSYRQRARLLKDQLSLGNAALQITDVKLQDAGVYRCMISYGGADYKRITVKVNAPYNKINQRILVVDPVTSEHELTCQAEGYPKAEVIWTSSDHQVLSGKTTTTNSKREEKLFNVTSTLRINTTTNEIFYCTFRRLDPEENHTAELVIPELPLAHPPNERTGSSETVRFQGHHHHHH

Take `CCCC[C@H]1C(=O)N(C)[C@@H](CCSC)C(=O)N[C@@H](CCCNC(=N)N)C(=O)NC(C(=O)NCC(N)=O)CSCC(=O)N[C@@H](Cc2ccc(O)cc2)C(=O)N(C)[C@@H](C)C(=O)N[C@@H](CC(N)=O)C(=O)N2CCC[C@H]2C(=O)N[C@@H](CN)C(=O)N[C@@H](CC(C)C)C(=O)N2CCC[C@H]2C(=O)N[C@@H](Cc2c[nH]c3ccccc23)C(=O)N[C@@H](CO)C(=O)N[C@@H](Cc2csc3ccccc23)C(=O)N1C` (stereo partly drawn) [Example 9082] ({CH2CO}-Y[NMeA]NP[Dap]LPWS[Bta][NMeNle][NMeM]R[ξC]G-NH2; thioether N-14): the IC50 lay within 0.158 to 4.71 nM in test [1] and 0.385 to 6.74 nM in test [2].
With `CCCC[C@H]1C(=O)N(C)[C@@H](CCSC)C(=O)N[C@@H](CCCNC(=N)N)C(=O)NC(C(=O)NCC(N)=O)CSCC(=O)N[C@@H](Cc2ccc(O)cc2)C(=O)N(C)[C@@H](C)C(=O)N[C@@H](CC(N)=O)C(=O)N2CCC[C@H]2C(=O)N[C@@H](CN)C(=O)N[C@@H](CC(C)C)C(=O)N2C[C@H](O)C[C@H]2C(=O)N[C@@H](Cc2c[nH]c3ccccc23)C(=O)N[C@@H](CO)C(=O)N[C@@H](Cc2c[nH]c3ccccc23)C(=O)N1C` (stereo partly drawn) [Example 9083] ({CH2CO}-Y[NMeA]NP[Dap]L[Hyp]WSW[NMeNle][NMeM]R[ξC]G-NH2; thioether N-14), the IC50 was 0.158 to 4.71 nM in test [1] and 6.76 to 30.3 nM in test [2].
On the same counts, the results for `CCCC[C@H]1C(=O)N(C)[C@@H](CCSC)C(=O)N[C@@H](CCCNC(=N)N)C(=O)NC(C(=O)NCC(N)=O)CSCC(=O)N[C@@H](Cc2ccc(O)cc2)C(=O)N(C)[C@@H](C)C(=O)N[C@@H](CC(N)=O)C(=O)N2CCC[C@H]2C(=O)N[C@@H](CN)C(=O)N[C@@H](CC(C)C)C(=O)N2C[C@H](O)C[C@H]2C(=O)N[C@@H](Cc2c[nH]c3ccccc23)C(=O)N[C@@H](CO)C(=O)N[C@@H](Cc2csc3ccccc23)C(=O)N1C` (stereo partly drawn) [Example 9084] ({CH2CO}-Y[NMeA]NP[Dap]L[Hyp]WS[Bta][NMeNle][NMeM]R[ξC]G-NH2; thioether N-14) are 0.158 to 4.71 nM and 0.385 to 6.74 nM.
The corresponding values for `CCCC[C@H]1C(=O)N(C)[C@@H](CCSC)C(=O)N[C@@H](C)C(=O)NC(C(=O)NCC(N)=O)CSCC(=O)N[C@@H](Cc2ccc(O)cc2)C(=O)N(C)[C@@H](C)C(=O)N[C@@H](CC(N)=O)C(=O)N2CCC[C@H]2C(=O)N[C@@H](CN)C(=O)N[C@@H](CC(C)C)C(=O)N2CCC[C@H]2C(=O)N[C@@H](Cc2c[nH]c3ccccc23)C(=O)N[C@@H](CO)C(=O)N[C@@H](Cc2c[nH]c3ccccc23)C(=O)N1C` (stereo partly drawn) [Example 9085] ({CH2CO}-Y[NMeA]NP[Dap]LPWSW[NMeNle][NMeM]A[ξC]G-NH2; thioether N-14) are 4.78 to 72.9 nM and 0.385 to 6.74 nM.
In the case of `CCCC[C@H]1C(=O)N(C)[C@@H](CCSC)C(=O)N[C@@H](C)C(=O)NC(C(=O)NCC(N)=O)CSCC(=O)N[C@@H](Cc2ccc(O)cc2)C(=O)N(C)[C@@H](C)C(=O)N[C@@H](CC(N)=O)C(=O)N2CCC[C@H]2C(=O)N[C@@H](CN)C(=O)N[C@@H](CC(C)C)C(=O)N2CCC[C@H]2C(=O)N[C@@H](Cc2c[nH]c3ccccc23)C(=O)N[C@@H](CO)C(=O)N[C@@H](Cc2csc3ccccc23)C(=O)N1C` (stereo partly drawn) [Example 9086] ({CH2CO}-Y[NMeA]NP[Dap]LPWS[Bta][NMeNle][NMeM]A[ξC]G-NH2; thioether N-14), the IC50 in test [1] is 0.158 to 4.71 nM; in test [2] it was 0.385 to 6.74 nM.
The corresponding values for `CCCC[C@H]1C(=O)N(C)[C@@H](CCSC)C(=O)N[C@@H](C)C(=O)NC(C(=O)NCC(N)=O)CSCC(=O)N[C@@H](Cc2ccc(O)cc2)C(=O)N(C)[C@@H](C)C(=O)N[C@@H](CC(N)=O)C(=O)N2CCC[C@H]2C(=O)N[C@@H](CN)C(=O)N[C@@H](CC(C)C)C(=O)N2C[C@H](O)C[C@H]2C(=O)N[C@@H](Cc2c[nH]c3ccccc23)C(=O)N[C@@H](CO)C(=O)N[C@@H](Cc2c[nH]c3ccccc23)C(=O)N1C` (stereo partly drawn) [Example 9087] are 0.158 to 4.71 nM and 0.385 to 6.74 nM.
For `CCCC[C@H]1C(=O)N(C)[C@@H](CCSC)C(=O)N[C@@H](C)C(=O)NC(C(=O)NCC(N)=O)CSCC(=O)N[C@@H](Cc2ccc(O)cc2)C(=O)N(C)[C@@H](C)C(=O)N[C@@H](CC(N)=O)C(=O)N2CCC[C@H]2C(=O)N[C@@H](CN)C(=O)N[C@@H](CC(C)C)C(=O)N2C[C@H](O)C[C@H]2C(=O)N[C@@H](Cc2c[nH]c3ccccc23)C(=O)N[C@@H](CO)C(=O)N[C@@H](Cc2csc3ccccc23)C(=O)N1C` (stereo partly drawn) [Example 9088] ({CH2CO}-Y[NMeA]NP[Dap]L[Hyp]WS[Bta][NMeNle][NMeM]A[ξC]G-NH2; thioether N-14), the IC50 in test [1] fell in the range of 0.158 to 4.71 nM; in test [2] it was 0.385 to 6.74 nM.
The corresponding values for `CCCC[C@H]1C(=O)N[C@@H](CCCNC(=N)N)C(=O)NC(C(=O)NCC(N)=O)CSCC(=O)N[C@@H](Cc2ccc(O)cc2)C(=O)N(C)[C@@H](C)C(=O)N[C@@H](CC(N)=O)C(=O)N2CCC[C@H]2C(=O)N[C@@H](CN)C(=O)N[C@@H](CC(C)C)C(=O)N2CCC[C@H]2C(=O)N[C@@H](Cc2c[nH]c3ccccc23)C(=O)N[C@@H](CO)C(=O)N[C@@H](Cc2c[nH]c3ccccc23)C(=O)N(C)[C@@H](CCSC)C(=O)N1C` (stereo partly drawn) [Example 9089] ({CH2CO}-Y[NMeA]NP[Dap]LPWSW[NMeM][NMeNle]R[ξC]G-NH2; thioether N-14) are 0.158 to 4.71 nM and 0.385 to 6.74 nM.
On the same counts, the results for `CCCC[C@H]1C(=O)N[C@@H](CCCNC(=N)N)C(=O)NC(C(=O)NCC(N)=O)CSCC(=O)N[C@@H](Cc2ccc(O)cc2)C(=O)N(C)[C@@H](C)C(=O)N[C@@H](CC(N)=O)C(=O)N2CCC[C@H]2C(=O)N[C@@H](CN)C(=O)N[C@@H](CC(C)C)C(=O)N2CCC[C@H]2C(=O)N[C@@H](Cc2c[nH]c3ccccc23)C(=O)N[C@@H](CO)C(=O)N[C@@H](Cc2csc3ccccc23)C(=O)N(C)[C@@H](CCSC)C(=O)N1C` (stereo partly drawn) [Example 9090] ({CH2CO}-Y[NMeA]NP[Dap]LPWS[Bta][NMeM][NMeNle]R[ξC]G-NH2; thioether N-14) are 0.158 to 4.71 nM and 0.385 to 6.74 nM.
On the same counts, the results for `CCCC[C@H]1C(=O)N[C@@H](CCCNC(=N)N)C(=O)NC(C(=O)NCC(N)=O)CSCC(=O)N[C@@H](Cc2ccc(O)cc2)C(=O)N(C)[C@@H](C)C(=O)N[C@@H](CC(N)=O)C(=O)N2CCC[C@H]2C(=O)N[C@@H](CN)C(=O)N[C@@H](CC(C)C)C(=O)N2C[C@H](O)C[C@H]2C(=O)N[C@@H](Cc2c[nH]c3ccccc23)C(=O)N[C@@H](CO)C(=O)N[C@@H](Cc2csc3ccccc23)C(=O)N(C)[C@@H](CCSC)C(=O)N1C` (stereo partly drawn) [Example 9092] ({CH2CO}-Y[NMeA]NP[Dap]L[Hyp]WS[Bta][NMeM][NMeNle]R[ξC]G-NH2; thioether N-14) are 0.158 to 4.71 nM and 6.76 to 30.3 nM.
In the case of `CCCC[C@H]1C(=O)N[C@@H](C)C(=O)NC(C(=O)NCC(N)=O)CSCC(=O)N[C@@H](Cc2ccc(O)cc2)C(=O)N(C)[C@@H](C)C(=O)N[C@@H](CC(N)=O)C(=O)N2CCC[C@H]2C(=O)N[C@@H](CN)C(=O)N[C@@H](CC(C)C)C(=O)N2CCC[C@H]2C(=O)N[C@@H](Cc2c[nH]c3ccccc23)C(=O)N[C@@H](CO)C(=O)N[C@@H](Cc2c[nH]c3ccccc23)C(=O)N(C)[C@@H](CCSC)C(=O)N1C` (stereo partly drawn) [Example 9093] ({CH2CO}-Y[NMeA]NP[Dap]LPWSW[NMeM][NMeNle]A[ξC]G-NH2; thioether N-14), the IC50 was in the range of 4.78 to 72.9 nM in test [1] and 6.76 to 30.3 nM in test [2].
`CCCC[C@H]1C(=O)N[C@@H](C)C(=O)NC(C(=O)NCC(N)=O)CSCC(=O)N[C@@H](Cc2ccc(O)cc2)C(=O)N(C)[C@@H](C)C(=O)N[C@@H](CC(N)=O)C(=O)N2CCC[C@H]2C(=O)N[C@@H](CN)C(=O)N[C@@H](CC(C)C)C(=O)N2CCC[C@H]2C(=O)N[C@@H](Cc2c[nH]c3ccccc23)C(=O)N[C@@H](CO)C(=O)N[C@@H](Cc2csc3ccccc23)C(=O)N(C)[C@@H](CCSC)C(=O)N1C` (stereo partly drawn) [Example 9094] ({CH2CO}-Y[NMeA]NP[Dap]LPWS[Bta][NMeM][NMeNle]A[ξC]G-NH2; thioether N-14): the IC50 lay in the range of 4.78 to 72.9 nM in test [1] and 0.385 to 6.74 nM in test [2].
On the same counts, the results for `CCCC[C@H]1C(=O)N[C@@H](C)C(=O)NC(C(=O)NCC(N)=O)CSCC(=O)N[C@@H](Cc2ccc(O)cc2)C(=O)N(C)[C@@H](C)C(=O)N[C@@H](CC(N)=O)C(=O)N2CCC[C@H]2C(=O)N[C@@H](CN)C(=O)N[C@@H](CC(C)C)C(=O)N2C[C@H](O)C[C@H]2C(=O)N[C@@H](Cc2c[nH]c3ccccc23)C(=O)N[C@@H](CO)C(=O)N[C@@H](Cc2c[nH]c3ccccc23)C(=O)N(C)[C@@H](CCSC)C(=O)N1C` (stereo partly drawn) [Example 9095] are 4.78 to 72.9 nM and 0.385 to 6.74 nM.
`CCCC[C@H]1C(=O)N[C@@H](C)C(=O)NC(C(=O)NCC(N)=O)CSCC(=O)N[C@@H](Cc2ccc(O)cc2)C(=O)N(C)[C@@H](C)C(=O)N[C@@H](CC(N)=O)C(=O)N2CCC[C@H]2C(=O)N[C@@H](CN)C(=O)N[C@@H](CC(C)C)C(=O)N2C[C@H](O)C[C@H]2C(=O)N[C@@H](Cc2c[nH]c3ccccc23)C(=O)N[C@@H](CO)C(=O)N[C@@H](Cc2csc3ccccc23)C(=O)N(C)[C@@H](CCSC)C(=O)N1C` (stereo partly drawn) [Example 9096] ({CH2CO}-Y[NMeA]NP[Dap]L[Hyp]WS[Bta][NMeM][NMeNle]A[ξC]G-NH2; thioether N-14): the IC50 was 0.158 to 4.71 nM in test [1] and 0.385 to 6.74 nM in test [2].
On the same counts, the results for `CCCC[C@H]1C(=O)N[C@@H](CCCNC(=N)N)C(=O)NC(C(=O)NCC(N)=O)CSCC(=O)N[C@@H](Cc2ccc(O)cc2)C(=O)N(C)[C@@H](C)C(=O)N[C@@H](CC(N)=O)C(=O)N2CCC[C@H]2C(=O)N[C@@H](CO)C(=O)N[C@@H](CC(C)C)C(=O)N2C[C@H](O)C[C@H]2C(=O)N[C@@H](Cc2c[nH]c3ccccc23)C(=O)N[C@@H](CO)C(=O)N[C@@H](Cc2csc3ccccc23)C(=O)N(C)[C@@H](CCSC)C(=O)N1C` (stereo partly drawn) [Example 9099] ({CH2CO}-Y[NMeA]NPSL[Hyp]WS[Bta][NMeM][NMeNle]R[ξC]G-NH2; thioether N-14) are 0.158 to 4.71 nM and 0.385 to 6.74 nM.

The values above are taken from patent US9850283B2, “Macrocyclic inhibitors of the PD-1/PD-L1 and CD80(B7-1)/PD-L1 protein/protein interactions” (BRISTOL-MYERS SQUIBB COMPANY, priority 2013, dated 2017).
